Legend:
[1] = Lipophilicity, log D of the compound; format: physicochemical; conditions: octanol/water
[2] = Fraction unbound in human plasma; format: ADME, cell-free
[3] = target: T1, Serine/threonine-protein kinase Chk1 (Homo sapiens, UniProt O14757); assay: Inhibition of human recombinant CHK1 expressed in insect cells using biotinylaminohexanoyl-KKVSRSGLYRSPMPENLNRPR as substrate after 2 hrs by scintillation proximity assay
T1 sequence (O14757 whole entry): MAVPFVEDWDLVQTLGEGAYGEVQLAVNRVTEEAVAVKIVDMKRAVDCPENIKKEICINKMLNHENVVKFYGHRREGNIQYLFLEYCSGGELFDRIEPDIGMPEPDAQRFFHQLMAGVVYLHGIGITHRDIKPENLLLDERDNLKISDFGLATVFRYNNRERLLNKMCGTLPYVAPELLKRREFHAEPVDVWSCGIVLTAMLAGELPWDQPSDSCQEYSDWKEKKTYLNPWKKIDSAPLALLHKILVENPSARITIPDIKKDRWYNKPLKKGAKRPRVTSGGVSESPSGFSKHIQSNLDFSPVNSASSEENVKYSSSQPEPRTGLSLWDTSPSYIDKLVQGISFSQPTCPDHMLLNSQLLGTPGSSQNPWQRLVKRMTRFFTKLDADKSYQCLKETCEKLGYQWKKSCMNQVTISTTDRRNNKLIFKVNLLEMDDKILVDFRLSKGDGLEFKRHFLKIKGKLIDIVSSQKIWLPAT

[4] = AUC in nude mouse; format: ADME, organism-based; design: concentration or dose not given beside the values; conditions: plasma
[5] = Half life in nude mouse; format: ADME, organism-based; conditions: in vivo
[6] = Volume of distribution at steady state in nude mouse; format: ADME, organism-based; conditions: in vivo, read-out: Vdss
[7] = Clearance in nude mouse; format: ADME, organism-based; conditions: in vivo
[8] = Thermodynamic solubility of the compound in 0.1 M phosphate buffer at pH 7.4; format: physicochemical; conditions: read-out: Therm_solubility
[9] = Clearance in rat; format: ADME, organism-based; conditions: in vivo
[10] = target: Serine/threonine-protein kinase Chk2 (Homo sapiens, UniProt O96017); assay: Inhibition of CHK2
Serine/threonine-protein kinase Chk2, sequence (O96017 whole entry): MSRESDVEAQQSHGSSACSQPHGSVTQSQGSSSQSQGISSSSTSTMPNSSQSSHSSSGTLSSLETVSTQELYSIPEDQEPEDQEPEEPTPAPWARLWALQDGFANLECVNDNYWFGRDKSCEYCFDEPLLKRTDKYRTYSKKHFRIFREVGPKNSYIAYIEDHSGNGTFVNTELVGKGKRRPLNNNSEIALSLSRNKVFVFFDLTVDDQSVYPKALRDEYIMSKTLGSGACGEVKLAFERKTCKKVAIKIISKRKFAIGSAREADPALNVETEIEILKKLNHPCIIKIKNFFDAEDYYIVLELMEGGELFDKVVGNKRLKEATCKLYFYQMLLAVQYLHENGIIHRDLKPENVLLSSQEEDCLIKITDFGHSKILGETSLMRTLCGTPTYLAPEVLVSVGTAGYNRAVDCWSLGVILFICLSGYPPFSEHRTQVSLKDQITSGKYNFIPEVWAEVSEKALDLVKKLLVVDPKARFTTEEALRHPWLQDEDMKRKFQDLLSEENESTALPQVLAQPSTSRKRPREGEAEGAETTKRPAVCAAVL

[11] = Half life in rat; format: ADME, organism-based; conditions: in vivo
[12] = Half life in dog; format: ADME, organism-based, Canis lupus familiaris; conditions: in vivo
[13] = Clearance in dog; format: ADME, organism-based, Canis lupus familiaris; conditions: in vivo
CYP450 = CYP450 (Homo sapiens, UniProt P04798+P05177+P05181+P08684+P10632+P10635+P11509+P11712+P13584+P20813+P20815+P20853+P24462+P24903+P33260+P33261+P51589+P78329+P98187+Q02928+Q08477+Q16678+Q16696+Q5TCH4+Q6VVX0+Q7Z449+Q8TAV3+Q96SQ9+Q9HB55); assay: Inhibition of CYP450; format: ADME

SMILES	IC50 [3]	AUC [4]	half-life [5]	Vd [6]	clearance [7]	further results
NC(=O)Nc1cc(-c2ccccc2F)sc1C(=O)N[C@H]1CCCNC1	20 nM	–	–	–	–	–
Cl.NC(=O)Nc1sc(-c2cccc(F)c2)cc1C(=O)N[C@H]1CCCNC1	–	3.8 µM·h	1 h	2.8 L/kg	33 mL/min/kg	–
Cl.NC(=O)Nc1sc(-c2ccc(F)cc2)cc1C(=O)N[C@H]1CCCNC1	–	1.5 µM·h	1.2 h	6.1 L/kg	81 mL/min/kg	–
Cl.NC(=O)Nc1cc(-c2cccc(F)c2F)sc1C(=O)N[C@H]1CCCNC1	20 nM	1.4 µM·h	1.4 h	7.7 L/kg	85 mL/min/kg	–
NC(=O)Nc1cc(-c2ccc(F)cc2F)sc1C(=O)N[C@H]1CCCNC1	30 nM	–	–	–	–	–
NC(=O)Nc1sc(-c2ccc(Cl)c(Cl)c2)cc1C(=O)N[C@H]1CCCNC1	30 nM	–	–	–	–	–
NC(=O)Nc1cc(-c2ccc(Cl)c(Cl)c2)sc1C(=O)N[C@H]1CCCNC1	40 nM	–	–	–	–	–
NC(=O)Nc1sc(-c2ccccc2)cc1C(=O)N[C@H]1CCCNC1	–	–	–	–	–	fraction unbound [2]: 0.077
NC(=O)Nc1cc(-c2cccc(F)c2)sc1C(=O)N[C@H]1CCCNC1 [AZD-7762]	–	2.5 µM·h	1.1 h	3.9 L/kg	50 mL/min/kg	logD [1]: 1.2; fraction unbound [2]: 0.26; solubility thermodynamic [8]: > 1000 µM; clearance [9]: 12.8 mL/min/kg; IC50 [10]: < 10 nM; half-life [11]: 5.2 h; half-life [12]: 1.5 h; clearance [13]: 35.7 mL/min/kg; IC50 (CYP450): > 10000 nM

The remaining compounds from weak to strong by IC50 [3], led by results:

IC50 [3]	AUC [4]	half-life [5]	Vd [6]	clearance [7]	SMILES	further results
13 nM	–	–	–	–	NC(=O)Nc1sc(-c2ccc(F)cc2F)cc1C(=O)N[C@H]1CCCNC1	–
12 nM	–	–	–	–	NC(=O)Nc1sc(-c2cc(F)cc(F)c2)cc1C(=O)N[C@H]1CCCNC1	–
11 nM	1.7 µM·h	1.2 h	4.5 L/kg	71 mL/min/kg	Cl.NC(=O)Nc1sc(-c2cccc(F)c2F)cc1C(=O)N[C@H]1CCCNC1	–
10 nM	–	–	–	–	NC(=O)Nc1cc(-c2ccccc2)sc1C(=O)N[C@H]1CCCNC1	logD [1]: 1.04; fraction unbound [2]: 0.32
10 nM	–	–	–	–	NC(=O)Nc1cc(-c2cc(F)cc(F)c2)sc1C(=O)N[C@H]1CCCNC1	–
9 nM	–	–	–	–	N#Cc1cccc(-c2cc(C(=O)N[C@H]3CCCNC3)c(NC(N)=O)s2)c1	–
8 nM	–	–	–	–	NC(=O)Nc1cc(-c2cccc(Cl)c2)sc1C(=O)N[C@H]1CCCNC1	–
7 nM	–	–	–	–	N#Cc1cccc(-c2cc(NC(N)=O)c(C(=O)N[C@H]3CCCNC3)s2)c1	–
6 nM	1.46 µM·h	1.2 h	8.5 L/kg	86 mL/min/kg	Cl.NC(=O)Nc1cc(-c2ccc(F)cc2)sc1C(=O)N[C@H]1CCCNC1	–
6 nM	–	–	–	–	N#Cc1ccc(-c2cc(NC(N)=O)c(C(=O)N[C@H]3CCCNC3)s2)cc1	–
